Structures can show the parent of a compound that is named as a salt. Ends that are not written are not given here.
Key:
[1] = test system: patients with oligospermia; settings: GnRH supplementation; cited from earlier work
[2] = after administration (oral); cited from earlier work
busulfan-modeled mice = settings: model group, busulfan 30 mg/kg single intraperitoneal injection; compared with the control group
Description: The Kunming mice are injected intraperitoneally with busulfan (30 mg/kg). An average weight of the mice is 27 grams (g). Each mouse is injected with 0.8 mg busulfan. A total of 40 mice are modeled.
After one week of modeling the mice, the average weight of the experimental mice is grams (g). […] The control group and the model group are injected with the equivalent amount of physiological saline.
After the mice are anesthetized and sacrificed, the left epididymal tail is immediately removed for semen analysis. The left testis is stored at −80° C., and the parameters such as protein and messenger ribonucleic acid (mRNA) expression are detected. The right testis and right epididymis are fixed with 4% paraformaldehyde for further histological analysis.
(2) Staining with hematoxylin: the soaked sections are taken out and dried, a hematoxylin staining solution is added to cover the tissue and stained for 3 minutes.
(3) Differentiation: a differentiation solution is dropped at the sections, after 5-6 seconds (s), when observing that the color has faded, the section can be rinsed with the ultrapure water.
(4) Bluing: hematoxylin bluing solution is dropped at the section, after 5-6 seconds, when observing the color blue, the sections can be rinsed with the ultrapure water. […]

[3] = test system: men with oligospermia with hypogonadism; settings: cited from earlier work

## GnRH: gonadotropin-releasing hormone supplementation (QHWSYGLRPG; ends and bridges not checked; UniProt P01148 24-33, looked up)
[1]
  patients who succeed in spermatogenesis: 77%

## Nc1nc2ccc(OC(F)(F)F)cc2s1 [riluzole, 2-amino-6-trifluomethoxy-benzothiazole]
[2]
  time to peak of blood concentration: 60 to 90 min

## CS(=O)(=O)OCCCCOS(C)(=O)=O [busulfan]
busulfan-modeled mice
  structure of seminiferous tubules (HE staining of testes): severely damages

## CCN(CC)CCOc1ccc(C(=C(Cl)c2ccccc2)c2ccccc2)cc1 [clomiphene citrate]
[3]; 12-month treatment
  bone mineral density of patients: significantly reduce
[3]; in vivo
  usefulness in men with oligospermia with hypogonadism: proven to be useful

Reference: patent US12691103B2 (Jinan University, priority 2022, dated 2026)
